Consider 14 molecules from patent US4242358A, “Method of treatment of algiae” (Societe de Recherches Industrielles (Sori), priority 1979, dated 1980).

SMILES strings stand for the structures.

Data set [1] relates to cramping induced by phenylbenzoquinone. Description: antalgic activity: percentage inhibition of cramping induced by phenylbenzoquinone, mice i.p. Format: in vivo. The settings on record: dose one tenth of LD-50 mice i.p., over 5 minutes, phenylbenzoquinone 0.02% i.p. As for the experimental part: The antalgic activity of the compounds of formula I was determined by measuring the cramping induced by phenylbenzoquinone, as described by Siegmund et al, Proc. Soc. Exp. Biol. Med. ([…]) 95, 729. A painful reaction, characterized by twisting movements and elongation of the abdomen, with scraping of the rear paws, was introduced by the intraperitoneal administration of a 0.02% w/v solution of phenyl-benzoquinone in […] at a rate of 0.5 ml/20 g body weight. The activity was measured by the percentage inhibition in the number of painful symptons over 5 minutes.

Data set [2] is described as follows: LD-50 mice i.p. (acute toxicity). The settings on record: mouse, in vivo, ip.
Another data set in a line: LD0 rat (acute toxicity). Format: in vivo.
Data set [3] is described as follows: clinical double blind test as an antalgic agent. The format is in vivo. Particulars: 41 patients, 400 mg per day, tablets, 20 days. As for the experimental part:
The compound of Example 1 has been tested clinically as an antalgic agent on 41 patients. A double blind test was carried out, using placebos and a dose of 400 mg per day of the active compound, administered as tablets.

A short description of data set [4]: kidney troubles / tolerance. The format is in vivo. Particulars: footnote (a), in connection with ED50 mice per os.
A short description of data set [5]: LD50 mice per os (acute toxicity). Particulars: mouse, in vivo, po.
A further data set concerns antalgic activity. Description: ED50 mice per os antalgic activity. The format is in vivo. The settings on record: Mus musculus, po.

A word on the LD50: it is the dose at which mortality reaches 50%. Low readings indicate a more toxic substance, high ones a less toxic substance. As for `O=C(O)COc1cccc(C(=O)c2ccc(Cl)cc2Cl)c1` [Example 9], in data set [1], the “Percentage of diminution of cramping, Tested compound” value (from here on “Percentage of diminution of cramping”) came out at 94%. This molecule returned an LD50 in data set [2] of 350 mg/kg.
Taken in the same sequence, the figures for `Cc1ccc(C(=O)c2cccc(OC(C)(C)C(=O)O)c2)c(C)c1` [Example 10] were 69% and 600 mg/kg.
Consider `CC(Oc1cccc(C(=O)c2ccccc2)c1)C(=O)O` (stereo not drawn) [Example 6], for which the “Percentage of diminution of cramping” value in data set [1] is listed as 100%. Also, the LD50 in data set [2] turned out to be 770 mg/kg.
Taken in the same sequence, the figures for `Cc1ccccc1C(=O)c1cccc(OC(C)(C)C(=O)O)c1` [Example 11] were 70% and 600 mg/kg.
Regarding `Cc1ccc(C(=O)c2cccc(OCC(=O)O)c2)cc1` [Example 12], the “Percentage of diminution of cramping” value in data set [1] is 92%. Moreover, the LD50 in data set [2] came to 450 mg/kg.
As for `CC(C)(Oc1cccc(C(=O)c2cccc(C(F)(F)F)c2)c1)C(=O)O` [Example 3], the “Percentage of diminution of cramping” value in data set [1] stood at 43%. The molecule also came in with an LD50 in data set [2] of 300 mg/kg.
A word on the ED50: it is the dose that gives a 50% effect, or the effect in half of the subjects. On to `CC(C)(Oc1cccc(C(=O)c2ccccc2)c1)C(=O)O` [Example 1, 2-(3-benzoyl)-phenoxy-2-methylpropionic acid], for which the “Percentage of diminution of cramping” value in data set [1] is on record as 95%. The KD0 rat i.p. in “LD0 rat (acute toxicity)” (i.p.) is 540 mg/kg. In the data set “LD0 rat (acute toxicity)” (per os), the “LD0 rat per os” value is “higher than 1600 mg/kg”. For the same molecule, the LD50 in data set [2] and in data set [5] was 350 mg/kg throughout. For the same molecule, the “tolerance of the product” value in data set [3] (double blind) is recorded as “excellent”. The “activity good, cases” value in data set [3] (double blind, patients who had received the active compound) came out at 80%. The relief of symptoms result in data set [3] (patients who had received the active compound) is “the symptoms had been relieved”. For the same molecule, in data set [4], the kidney troubles entry is recorded as “without kidney troubles”. In addition, in the data set on antalgic activity, the ED50 was found to be 35 mg/kg.
Take `CC(Oc1cccc(C(=O)c2cccc(C(F)(F)F)c2)c1)C(=O)O` (stereo not drawn) [Example 7]: the “Percentage of diminution of cramping” value in data set [1] came out at 61%. Besides, the LD50 in data set [2] turned out to be 350 mg/kg.
On the same counts, the results for `CC(Oc1cccc(C(=O)c2ccc(Cl)cc2Cl)c1)C(=O)O` (stereo not drawn) [Example 8] are 100% and 800 mg/kg.
Taken in the same sequence, the figures for `COc1ccc(C(=O)c2cccc(OC(C)(C)C(=O)O)c2)cc1` [Example 2] were 97% and 300 mg/kg.
On to `Cc1ccc(C(=O)c2cccc(OC(C)(C)C(=O)O)c2)cc1C` [Example 5], for which the “Percentage of diminution of cramping” value in data set [1] came to 100%. Besides, in data set [2], the LD50 turned out to be 450 mg/kg.
In the case of `O=C(OCC(O)CO)c1ccccc1Nc1ccnc2cc(Cl)ccc12` (stereo not drawn) [Glaphenine, 2,3-dihdroxypropyl N-(7-chloro-4-quinolyl)-anthranilate, reference compound], the kidney troubles entry in data set [4] was “induces kidney troubles”. The molecule also yielded an ED50 in the data set with antalgic activity of 25 mg/kg.
For the molecule `Cc1ccc(C(=O)c2cccc(OC(C)C(=O)O)c2)cc1` (stereo not drawn) [Example 13], in data set [1], the “Percentage of diminution of cramping” value is 98%. In data set [2], the LD50 was determined as 700 mg/kg.
Taken in the same sequence, the figures for `Cc1ccc(C(=O)c2cccc(OC(C)(C)C(=O)O)c2)cc1` [Example 4] were 66% and 400 mg/kg.
